# Results published in patent US10329304B2, “Compounds and methods for inhibition of hedgehog signaling and phosphodiesterase” (Vanderbilt University, priority 2014, dated 2019).
# Assays:
# [1] = test system: Hedgehog signaling (Gli-Luc reporter); test: Hh Gli-Luciferase reporter assay in Shh-Light2 cells; type: cell-based, mouse; settings: for EC50: Mus musculus, Shh Light2, Table 9B, read-out: Shh Light2 Luc EC50
# Method: For Hh signaling assays, Shh-Light2 cells stably transfected with Gli-Luciferase reporter construct were used along with Shh-conditioned media, as previously described^7. Alternatively, 3 μM purmorphamine or 20 nM Smoothened agonist (SAG) (Santa Cruz Biotechnology, Santa Cruz, Calif.) was used to induce Hh signaling. Reporter cells were seeded in 96-well plates and incubated overnight with the various concentrations of eggmanone and Shh-conditioned media. To assess the effects of overexpression of Gli-2, PDE4D3 and DN-PDE4D3 on Hh signaling, mammalian expression vectors containing these constructs were transfected into Shh-Light2 cells in 96-well plates using Fugene6 (Roche), according to manufacturer's instructions. The transfected or Shh-stimulated cells were incubated overnight with the various concentrations of compound. The cells were then lysed, and cell extracts were subjected to Steady-Glo luciferase assay (Promega) according to manufacturer's instructions. The results were normalized to cell titer, as determined using Cell Titer-Glo luminescence assay (Promega).
# [2] = test system: Hedgehog signaling (TM3-Gli-Luc); test: TM3-Gli-Luc luciferase reporter assay stimulated with 20 nM SAG; type: cell-based; settings: Table 9A; read-out: TM3 G8 Luciferase EC 50
# Method: TM3-Gli-Luc cells were maintained on sterile 0.1% gelatin (from porcine skin, Type A, prepared in MilliQ water, autoclaved, then sterile-filtered) in 1:1 Dulbecco's Modified Eagle Medium (DMEM)/F12 supplemented with 5% horse serum, 2.5% fetal bovine serum (FBS), and 15 mM HEPES, hereafter referred to as TM3 Culture Medium. For small molecule evaluation, TM3-Gli-Luc cells were assayed on 0.1% gelatin in DMEM/F12 supplemented with 2.5% FBS and 15 mM HEPES, hereafter referred to as TM3Luc Medium. Sufu^−/− cells were maintained in DMEM supplemented with 4.5 g/L D-glucose, L-glutamine, 25 mM HEPES, and 10% FBS, hereafter referred to as D10 FBS. For small molecule evaluation, Sufu^−/− cells were assayed in DMEM supplemented with 4.5 g/L D-glucose, L-glutamine, 25 mM HEPES, and 0.5% FBS, hereafter referred to as D0.5 FBS. All cells were cultured at 37° C. with a 5% CO2 atmosphere.
# On the day of cell plating, 96-well plates were coated with 50 μL/well of sterile 0.1% gelatin for 5 minutes then aspirated and replaced with 50 μL/well of TM3 Culture Medium. TM3-Gli-Luc cells were seeded at a density of 5,000 cells/well in TM3 Culture Medium and incubated for 24 hours. A master mix of 20 nM SAG in TM3Luc Medium was prepared, and small molecule solutions were prepared by adding the desired amount of compound from 10 mM DMSO stock to TM3Luc Medium containing 20 nM SAG. Negative control was prepared by adding an equi-volume amount of DMSO as compared to small molecule treated conditions to TM3Luc Medium not containing SAG. Cell plating medium was aspirated and replaced with 100 μL/well of prepared small molecule-containing media, and plates were incubated for 48 hours before proceeding to luciferase activity and cell viability reading.
# TM3Luc Medium from compound treated plates was aspirated and replaced with 82 μL/well of Glo Lysis Buffer (Promega, Madison, Wis., USA), and plates were shaken at 300 rpm and room temperature for 12 minutes. Lysate was split between two white 96-well plates, 45 μL/well and 25 μL/well for luciferase reading and cell viability respectively. For luciferase activity monitoring, 45 μL/well of Steady Glo (Promega, Madison, Wis., USA) was added to 45 μL/well of cell lysate, incubated at room temperature for 5 minutes, then luminescence was measured on a Turner Biosystems Modulus Microplate Reader (Sunnyvale, Calif., USA) with an integration time of 0.5 seconds. For cell viability measurement, 25 μL/well of Cell Titer Glo (Promega, Madison, Wis., USA) (prepared by 1:10 dilution with Glo Lysis Buffer) was added to 25 μL/well of cell lysate, incubated at room temperature for 5 minutes, then luminescence was measured as above.
# Luciferase activity data (Steady Glo) was divided by corresponding cell viability data (Cell Titer Glo) to arrive at a live cell number-normalized luciferase activity reading. The average of negative control data (DMSO treated) was subtracted from all wells, and percent activity was calculated by dividing all wells by the positive control (SAG treated) average. […] At least two independent assays tested on separate days were averaged to provide EC50±standard error of the mean.
# zebrafish embryos = test: Zebrafish embryo phenotypic assay (ZF); type: in vivo; settings: wild-type embryonic zebrafish, dosed 5 hpf
# Method: All zebrafish experiments were approved by Vanderbilt University Institutional Animal Care and Use Committee. Wild-type zebrafish of AB strain were maintained using standard protocols. Chemical screen for small molecules was performed as previously described. Briefly, pairs of zebrafish were mated, and fertilized eggs were arrayed in 96-well microtiter plates (5 embryos/well) containing 250 μl E3 water. At ˜4-hpf, small molecule library from Vanderbilt High Throughput Screening Facility was added to each well to the final concentration of 5 μM. Embryos were incubated at 28.5° C. until 24 and 48-hpf, when they were examined for gross morphologic changes indicative of disruption in embryonic patterning. A total of ˜30,000 compounds were screened.
# ZF refers to wild-type embryonic zebrafish phenotypic assay involving dosing n=˜10 embryos in E3 egg water with compound from either a stock of 1 mM or 10 mM in DMSO at 5 hours post-fertilization and observing at 24, 48, and 72 hours post-fertilization.
# Gli1 mRNA = test: Hh % Inh.: SAG-induced Gli1 expression in C3H10T½ cells (qPCR); type: cell-based; settings: Mus musculus, C3H 10T1/2, SAG-induced (100 nM), 24 hours; for inhibition at 1 µM: 1 pM [sic], read-out: C3H10T1/2 qPCR, Gh1 mRNA % Inh., 1 pM; for inhibition at 10 µM: 10 pM [sic], read-out: C3H10T1/2 qPCR, Gh1 mRNA % Inh., 10 pM
# Method: Compounds are dosed from 10 mM DMSO stock solutions, and mRNA is isolated after 24 hours of compound treatment. mRNA is reverse transcribed to produce cDNA which is quantified by quantitative polymerase chain reaction (qPCR) in triplicate and levels are normalized to GAPDH levels. Data is presented as percent inhibition compared to positive control (SAG).
# PDE4D3 = target: T1, PDE4D3 (Homo sapiens, UniProt Q08499); test: In vitro PDE assay; type: biochemical; settings: Table 9A
# T1 construct: purchased BPS Biosciences (San Diego, Calif.); kinetic studies by Millipore (St. Louis, Mo.)
# T1 sequence (Q08499 1-673 isoform Q08499-2): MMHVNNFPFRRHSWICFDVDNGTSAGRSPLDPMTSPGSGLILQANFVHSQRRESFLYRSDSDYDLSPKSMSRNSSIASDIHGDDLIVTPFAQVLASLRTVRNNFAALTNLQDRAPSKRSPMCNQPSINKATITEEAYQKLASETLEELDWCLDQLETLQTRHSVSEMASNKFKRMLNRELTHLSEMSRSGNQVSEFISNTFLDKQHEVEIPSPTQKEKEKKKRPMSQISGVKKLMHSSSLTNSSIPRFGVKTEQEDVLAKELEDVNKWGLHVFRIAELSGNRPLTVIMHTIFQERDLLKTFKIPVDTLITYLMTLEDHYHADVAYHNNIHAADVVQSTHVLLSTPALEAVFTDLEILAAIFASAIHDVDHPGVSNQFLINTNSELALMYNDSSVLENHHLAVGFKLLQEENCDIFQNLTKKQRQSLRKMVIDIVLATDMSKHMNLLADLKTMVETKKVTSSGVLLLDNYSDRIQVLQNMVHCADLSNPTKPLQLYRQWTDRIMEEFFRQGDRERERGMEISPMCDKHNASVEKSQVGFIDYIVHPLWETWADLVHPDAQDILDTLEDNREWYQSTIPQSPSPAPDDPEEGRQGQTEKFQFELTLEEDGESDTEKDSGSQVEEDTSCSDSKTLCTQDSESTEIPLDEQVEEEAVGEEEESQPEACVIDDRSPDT
# Method: In vitro PDE profiling and dose-response assays were performed by BPS Biosciences (San Diego, Calif.). Kinetic Mechanism of inhibition studies were conducted by Millipore (St. Louis, Mo.). In brief, the PDE assay measures fluorescent polarization of FAM-AMP as FAM-cAMP is converted to FAM-AMP by PDE), the binding agent.
# A series of dilutions of the test compound were prepared with 10% DMSO in assay buffer and 5 μl of the dilution was added to a 50 μl reaction so that the final concentration of DMSO is 1% in all of reactions. All of the PDE enzymatic reactions were conducted in duplicate at room temperature for 60 minutes in a 50 μl mixture containing PDE assay buffer (10 mM Tris-HCl, pH7.4, 10 mM MaCl2, 0.05% Tween 20), 100 nM FAM-cAMP, a PDE enzyme and a test compound.
# After the enzymatic reaction, 100 μl of a binding solution (1:100 dilution of the binding agent, which contains the nano beads that recognize FAM-AMP, with the binding agent diluent) was added to each reaction and the reaction was performed at room temperature for 60 minutes. Fluorescence intensity was measured at an excitation of 485 nm and an emission of 528 nm using a Tecan Infinite M1000 microplate reader. Assays done by Millipore were conducted similarly with changes noted below: […]
Structure (SMILES),EC50 [2] [µM],ZF Phenotype EC100 (zebrafish embryos) [µM],inhibition at 10 µM (Gli1 mRNA) [%],further results
C=CCn1c(SCC(=O)c2ccc(-c3ccccc3)cc2)nc2sc3c(c2c1=O)CCCC3 [Formula (20)],–,–,–,"Hh Inhibition Assay (EC50, μM) ([1]; Table 8): Inactive"
C=C(C)Cn1c(SC)nc2sc3c(c2c1=O)CCCC3 [HI272],–,–,–,EC50 [1]: > 10 µM
CCn1c(SCC(=O)c2ccccc2)nc2sc3c(c2c1=O)CCC3 [HI598],–,–,–,EC50 [1]: > 10 µM
C=CCn1c(SCC(=O)c2ccc(C)cc2)nc2sc3c(c2c1=O)CCCC3 [HI612],–,–,–,EC50 [1]: > 10 µM
C=CCn1c(SCC(=O)c2ccc(F)cc2)nc2sc3c(c2c1=O)CCCC3 [HI682],–,–,–,EC50 [1]: > 10 µM
CCn1c(SCC(=O)c2ccccc2)nc2sc(C)c(C)c2c1=O [HI864],–,–,–,EC50 [1]: > 10 µM
C=CCn1c(SCC(=O)O)nc2sc3c(c2c1=O)CCCC3 [HI918],–,–,–,EC50 [1]: > 10 µM
CCn1c(SCC(=O)c2ccc(Br)cc2)nc2sc3c(c2c1=O)CCC3 [HI2863],–,–,–,EC50 [1]: > 10 µM
C=C(C)Cn1c(SCC(=O)c2cccs2)nc2sccc2c1=O [JEH-1-054],1.1,>50,50.4,inhibition at 1 µM (Gli1 mRNA): 19.6%
C=C(C)Cn1c(SCC(=O)c2cccs2)nc2sc3c(c2c1=O)CCNC3 [JEH-1-064],7.06,>50,64.1,–
C=C(C)Cn1c(SCC(=O)c2cccs2)nc2ccccc2c1=O [JEH-1-146-1],> 50,10,68.9,–
C=C(C)Cn1c(SCC(=O)c2cccs2)nc2ncccc2c1=O [JEH-1-146-2],11.2,>50,28.7,–
O=C(CSc1nc2sc3c(c2c(=O)n1C1CC1)CCCC3)c1ccncc1 [JEH-1-163-2],3.79,>50,–,–
Cc1ccc(CSc2nc3sccc3c(=O)n2C2CC2)cc1 [JEH-1-190-3],5.01,>50,–,–
O=C(CSc1nc2sccc2c(=O)n1CC1CC1)c1cccnc1 [JEH-2-022-2],3.16,25,–,–
O=C(CSc1nc2ccsc2c(=O)n1C1CC1)c1cccs1 [JEH-2-069-2],1.11,48,–,–
C=C(C)Cn1c(SCC(=O)c2cccs2)nc2cnccc2c1=O [JEH-2-088],14.1,–,24.2,–

Structure (SMILES),EC50 [2] [µM],ZF Phenotype EC100 (zebrafish embryos) [µM],inhibition at 10 µM (Gli1 mRNA) [%],further results
C=C(C)Cn1c(SCC(=O)c2cccs2)nc2sc3c(c2c1=O)CCN(C(=O)c1ccco1)C3 [JEH-2-105],–,–,54.9,–
C=C(C)Cn1c(SCC(=O)c2cccs2)nc2sc3c(c2c1=O)CCOC3 [JEH-2-120-1],30.2,–,82.9,–
CC(C)n1c(SCC(=O)c2cccs2)nc2sc3c(c2c1=O)CCCC3 [JEH-3-031],–,–,101,inhibition at 1 µM (Gli1 mRNA): 11.7%
CC(C)Cn1c(SCC(=O)c2cccs2)nc2sc3c(c2c1=O)CCCC3 [JEH-3-038-2],–,–,102,inhibition at 1 µM (Gli1 mRNA): 27.8%
CC(C)(O)Cn1c(SCC(=O)c2cccs2)nc2sc3c(c2c1=O)CCCC3 [JEH-3-038-3],–,–,14.8,inhibition at 1 µM (Gli1 mRNA): 24.4%
O=C(CSc1nc2sc3c(c2c(=O)n1CC1CC1)CCCC3)c1cccs1 [JEH-3-039-1],2.96,–,81.6,IC50 (PDE4D3): 1 µM; inhibition at 1 µM (Gli1 mRNA): -3.3%
C=C(C)Cn1c(SCC(=O)c2cccnc2)nc2sc3c(c2c1=O)CCCC3 [JEH-3-045-3],10.5,–,43.6,–
O=C(CSc1nc2sc3c(c2c(=O)n1CC1CCC1)CCCC3)c1cccs1 [JEH-3-056-1],7.08,1,67.2,inhibition at 1 µM (Gli1 mRNA): 14.7%
CC(C)(C)Cn1c(SCC(=O)c2cccs2)nc2sc3c(c2c1=O)CCCC3 [JEH-3-056-2],–,–,84.8,inhibition at 1 µM (Gli1 mRNA): 13.1%
O=C(CSc1nc2sc3c(c2c(=O)n1Cc1ccccc1)CCCC3)c1cccs1 [JEH-3-058-2],–,–,18.3,–
C=C(C)Cn1c(SCC(=O)N2CCCC(C)C2)nc2sc3c(c2c1=O)CCCC3 (stereo not shown) [JEH-3-120-1],–,–,106,inhibition at 1 µM (Gli1 mRNA): 28.7%
C=C(C)Cn1c(SC)nc2sc3c(c2c1=O)CCCC3 [JEH-3-146],23.9,–,83.9,inhibition at 1 µM (Gli1 mRNA): 48.4%
O=C(CSc1nc2sc3c(c2c(=O)n1C1CC1)CCNC3)c1ccccc1 [KYK-1-57],8.55,>50,–,–
O=C(CSc1nc2sc3c(c2c(=O)n1C1CC1)CCN(C(=O)c1ccco1)C3)c1ccccc1 [KYK-1-75],3.59,>50,–,IC50 (PDE4D3): 6.4 µM
CN1CCc2c(sc3nc(SCC(=O)c4ccccc4)n(C4CC4)c(=O)c23)C1 [KYK-1-76],5.13,>50,–,–
CCCN1CCc2c(sc3nc(SCC(=O)c4ccccc4)n(C4CC4)c(=O)c23)C1 [KYK-1-100],4.67,>50,–,–
